Measurements published in patent US6699850B2, “Compositions and methods for inhibiting bone resorption” (Merck & Co., Inc., priority 1998, dated 2004).

What was measured:
[1] = system: 34 kDa Mst Kinase fragment; experiment: In-gel kinase assay of Mst kinase activities in cultured osteoclast-like cells; type: cell-based, Murine; conditions: for activation of the 34 kDa Mst Kinase fragment: osteoclast like cells; for blocking of activation of Mst1 cleavage by alendronate monosodium trihydrate: FIG. 5 lanes 3 and 4, 10 μM isoprenoid with 30 μM alendronate monosodium trihydrate
Protocol: (§1) Murine co-cultures of osteoblasts and marrow cells are prepared using the methods of Wesolowski, et al., Exp Cell Res, (1995), 219, pp. 679-686, which is incorporated by reference herein in its entirety. Bone marrow cells are harvested from 6-week-old male Balb/C mice by flushing marrow spaces of freshly isolated long bones (tibiae and femora) with α-MEM (minimal essential media) containing penicillin/streptomycin (100 I.U./ml of each and 20 mM Hepes buffer). The bone marrow cells are suspended in α-MEM and the cells are filtered through an approximately 70 μm cell strainer. The filtrate is centrifuged at about 300×g for about 7 minutes. The resulting pellet is resuspended in α-MEM supplemented with fetal calf serum (10% v/v) and 10 nM 1, 25-(OH)2 vitamin D3. These bone marrow isolates are added to sub-confluent monolayers of osteoblastic MB 1.8 cells in cell culture plates and cultured for 7 days at 37 °C. in the presence of 5% CO2. Culture media is replenished ever other day. Fusion of the osteoclast precursor cells from bone marrow (with each other) to form multinucleated osteoclast-like cells typically occurs after about 7 days. Osteoclast-like cells are enriched by sequential treatment with collagenase (1 mg/mL in phosphate buffered saline) for one hour at 37° C. and EDTA (0.2 g/L in phosphate buffered saline) for 20 min at 37° C. Non-adherent cells are rinsed away by washing with phosphate buffered saline. Osteoclast-like cells which are resistant to the sequential treatments are present at about 95% purity and are maintained in α-MEM supplemented with fetal calf serum (10% v/v), 10 nM 1,25-(OH)2 vitamin D3, macrophage-colony-stimulating factor (5 ng/mL).
The compounds to be evaluated are prepared as a solution of the desired concentration in α-MEM. Examples of compounds that can be evaluated include nitrogen-containing bisphosphonates such as alendronate monosodium trihydrate, as well as compounds that block the effects of these inhibitors, such as isoprenoid compounds, for example, geranylgeraniol, geranylgeranyl phosphate, geranylgeranyl pyrophosphate, geranylgeranyl acetate, geranylgeranyl propionate, geranylgeranyl benzoate, geranylgeranyl lactate, geranylgeranyl succinate, and geranylgeranyl glutarate. Combinations of compounds can also be evaluated. The solutions of the compounds to be evaluated are added to the cultures for a time period of 17-24 hours. No treatment controls (controls not treated with compounds) are prepared by adding equivalent volumes of α-MEM to the control dishes.
Cells are then harvested and Iysed in a HEPES (N-(2-hydroxyethyl)piperazine-N′-(2-ethansulfonic acid) or Tris buffer containing the following: β-glycerophosphate (50 mM); Na3VO4 (1 mM); NaF (1 mM); Microcystin LR (1 μM); leupeptin (10 μg/ml); aprotinin (10 μg/ml); phenylmethyl sulfonylfluoride (1 mM). Protein concentrations are determined for each lysate and 5-20 μg are loaded into each lane of a SDS-PAGE (sodium dodecyl sulfate-polyacrylamide gel electrophoresis) gel containing Myelin Basic Protein, or another kinase substrate, which has been polymerized into the gel at a concentration between 50-400 μg/ml. Molecular weight standards are also loaded into one or more lanes of the gels. In-gel kinase assays are run according to a standard procedure based on Kameshita and Fujisawa, 1989 (Anal. Biochem. 183:139-143) and of Gotoh et al., 1990 (Eur. J. Biochem. 193: 661-669), both references being incorporated by reference herein in their entirety. The proteins are electrophoresed in the above gels. The gels are then successively soaked in 50 mM HEPES, pH 7.6; 5 mM 2-mercaptoethanol and each of the following (for each wash): (a) 20% isopropanol; (b) no additions; (c) urea (6 M); (d) Urea (3 M); (e) Urea (0.75 M); and Tween 20 (0.05% vol:vol). Kinase reactions are then run by first soaking the gels in 20 mM HEPES, pH 7.6; 20 mM MgCl2; 2 mM DTT and then in the same buffer containing 0.02 M ATP (non-radioactive) with ca. 1000 cpm/pmol ^32P-γ-ATP. […]

[2] = system: osteoclast function; experiment: Osteoclast cell cultures and bone resorption assays; type: cell-based; conditions: with a bisphosphonate such as alendronate monosodium trihydrate; no concentration stated
Protocol: The compounds are dosed both 5 and 6 days after establishing the culture, and the formation of 250 μm cells are counted using an inverted microscope with a 10×objective and quantitated versus a no treatment control.
as §1, with “Osteoclast-like cells are enriched by sequential treatment with collagenase (1 mg/mL in phosphate buffered saline) for one hour at 37° C. and EDTA (0.2 g/L in phosphate buffered saline) for 20 min at 37° C. Non-adherent cells are rinsed away by washing with phosphate buffered saline. Osteoclast-like cells which are resistant to the sequential treatments are present at about 95% purity and are maintained in α-MEM supplemented with fetal calf serum (10% v/v), 10 nM 1,25-(OH)2 vitamin D3, macrophage-colony-stimulating factor (5 ng/mL).” left out

Row | SMILES | activation of the 34 kDa Mst Kinase fragment ([1]; FIG. 2, 30 μM, about 17 hours) | activation of the 34 kDa Mst Kinase fragment ([1]; FIG. 2, 100 μM, about 17 hours) | blocking of activation of Mst1 cleavage by alendronate monosodium trihydrate [1] | other results
1 | NCCCC(O)(P(=O)(O)O)P(=O)(O)O [alendronate monosodium trihydrate, 4-amino-1-hydroxybutylidene-1,1-bisphosphonic acid monosodium trihydrate] | activation | activation | – | activation of 34 kDa Mst Kinase fragment immunoprecipitated by anti-Mst and anti-Krs antibody cocktail ([1]; FIG. 1 lane 3, 30 μM, osteoclast-like cells, in-gel kinase assay after immunoprecipitation): activated; activation of the 34 kDa Mst Kinase fragment ([1]; FIG. 4 lane 2, 30 μM): activation; activation of Mst1 cleavage ([1]; FIG. 5 lane 2, 30 μM, myelin basic protein as substrate): activation of Mst1 cleavage
2 | CC(O)(P(=O)(O)O)P(=O)(O)O [etidronate disodium] | fail to activate | fail to activate | – | –
3 | CC(C)=CCCC(C)=CCCC(C)=CCO [farnesol] | – | – | partially blocked | –
4 | CC(C)=CCC/C(C)=C/CC/C(C)=C/CC/C(C)=C/CO [geranylgeraniol] | – | – | blocked | effect on activation of the 34 kDa Mst Kinase fragment by alendronate monosodium trihydrate ([1]; FIG. 4 lane 3, 10 μM geranylgeraniol with 30 μM alendronate monosodium trihydrate): negates this activation; effect on cleavage of Mst induced by bisphosphonates such as alendronate monosodium trihydrate ([1]; osteoclasts, no concentration stated): prevent the cleavage of Mst; effect on bisphosphonate-induced inhibition of osteoclast function [2]: block the inhibitory effect
5 | O=P(O)(O)C(Sc1ccc(Cl)cc1)P(=O)(O)O [tiludronate disodium] | fail to activate | fail to activate | – | –
